# US8334316B2, “Substituted organosulfur compounds and methods of using thereof” (ACEA Biosciences, Inc., priority 2004, dated 2012)
# Assay: Acute toxicity, single intravenous injection, LD50 (Bliss method) in Kunming mice
# Type: in vivo
# Procedure: To evaluate the in vivo acute, intravenous toxicity of DBTS and ACEA100108 (a derivative of DBTS, see Table 33), the experiments were performed in non-tumor bearing, normal Kunming mice by monitoring the acute response of mice to a single dose of DBTS or ACEA100108 via intravenous injection (i.v.). The number of death for the treated mice was monitored and recorded. LD50 values for these compounds were calculated. Details of the study are provided below.
# The experiments to test DBTS and ACEA100108 acute toxicity were performed in mice. The test mice were randomly divided into six groups (five dosing groups and one control group). Each group contained 20 Kunming strain mice, and among them, 50% were male and 50% were female. After administration of a single dose of DBTS or ACEA100108 via intravenous injection (i.v.), the acute response to DBTS or ACEA100108 compound, and the death of the treated mice during the first two weeks were monitored and recorded. The LD50 value was calculated using the Bliss method.
# Materials and Method. The test chemical compound were DBTS and ACEA100108, which were dissolved into hydrogenated castor oil in the pre-warmed water bath and made as a 20 mg/ml solution. The solution was further diluted to desired experiment concentrations with the normal saline. The administration volume was 0.5 ml i.v. per mouse and the injection speed was 0.5 ml/0.5 min.
# The experimental mice were Kunming strain, provided by the Experimental Animal Department, Shanghai Pharmaceutical Industry Institute. The certificate number of the facility was Animal Facility Certification Number 107. The average weight of the mice was 18-20 gram. Each test group contained 20 Kunming strain mice, and among them, 10 mice were male and 10 mice were female. […] The mice in the control group were only given the same volume of the solvent, which were diluted hydrogenated castor oil. All the testing mice were given a single intravenous injection of DBTS, ACEA100108, or the solvent that served as the control at the injection speed of 0.5 ml/0.5 min. The acute response to DBTS, ACEA100108 or the solvent immediately after the administration, as well as weight change, and the death within the first two weeks of the administration were monitored and recorded. The intravenous injection LD50 values in mice were calculated using the Bliss method.
# [1] = 50% male, 50% female, 163.8 mg/kg, 20 animals
# [2] = 50% male, 50% female, 204.8 mg/kg, 20 animals
# [3] = 50% male, 50% female, 256 mg/kg, 20 animals
# [4] = 50% male, 50% female, 320 mg/kg, 20 animals
# [5] = 50% male, 50% female, 400 mg/kg, 20 animals
# [6] = 50% male, 50% female, 500 mg/kg, 20 animals
# [7] = Female, 163.8 mg/kg, 10 animals
# [8] = Female, 204.8 mg/kg, 10 animals
smiles,measurement,setting,value
"Fc1ccc(CSSSCc2ccc(F)cc2)cc1 [ACEA100108, Di(p-fluorobenzyl)trisulfide]",Dead animals on day 1 after the single intravenous injection,[1],0
same,Dead animals on day 2 after the single intravenous injection,[1],0
same,Dead animals on day 3 after the single intravenous injection,[1],0
same,Dead animals on day 4 after the single intravenous injection,[1],0
same,Dead animals on day 5 after the single intravenous injection,[1],0
same,Dead animals on day 6 after the single intravenous injection,[1],0
same,Dead animals on day 7 after the single intravenous injection,[1],0
same,Dead animals on day 8 after the single intravenous injection,[1],0
same,Dead animals on day 9 after the single intravenous injection,[1],0
same,Dead animals on days 10-14 after the single intravenous injection,[1],0 - - - 0
same,Percentage of dead animals,[1],0%
same,Dead animals on day 1 after the single intravenous injection,[2],0
same,Dead animals on day 2 after the single intravenous injection,[2],0
same,Dead animals on day 3 after the single intravenous injection,[2],1
same,Dead animals on day 4 after the single intravenous injection,[2],0
same,Dead animals on day 5 after the single intravenous injection,[2],0
same,Dead animals on day 6 after the single intravenous injection,[2],0
same,Dead animals on day 7 after the single intravenous injection,[2],0
same,Dead animals on day 8 after the single intravenous injection,[2],0
same,Dead animals on day 9 after the single intravenous injection,[2],0
same,Dead animals on days 10-14 after the single intravenous injection,[2],0 - - - 0
same,Percentage of dead animals,[2],5%
same,Dead animals on day 1 after the single intravenous injection,[3],0
same,Dead animals on day 2 after the single intravenous injection,[3],4
same,Dead animals on day 3 after the single intravenous injection,[3],0
same,Dead animals on day 4 after the single intravenous injection,[3],2
same,Dead animals on day 5 after the single intravenous injection,[3],0
same,Dead animals on day 6 after the single intravenous injection,[3],0
same,Dead animals on day 7 after the single intravenous injection,[3],0
same,Dead animals on day 8 after the single intravenous injection,[3],0
same,Dead animals on day 9 after the single intravenous injection,[3],0
same,Dead animals on days 10-14 after the single intravenous injection,[3],0 - - - 0
same,Percentage of dead animals,[3],30%
same,Dead animals on day 2 after the single intravenous injection,[4],2
same,Dead animals on day 3 after the single intravenous injection,[4],5
same,Dead animals on day 4 after the single intravenous injection,[4],2
same,Dead animals on day 5 after the single intravenous injection,[4],0
same,Dead animals on day 6 after the single intravenous injection,[4],0
same,Dead animals on day 7 after the single intravenous injection,[4],0
same,Dead animals on day 8 after the single intravenous injection,[4],0
same,Dead animals on day 9 after the single intravenous injection,[4],0
same,Dead animals on days 10-14 after the single intravenous injection,[4],0 - - - 0
same,Percentage of dead animals,[4],45%
same,Dead animals on day 2 after the single intravenous injection,[5],8
same,Dead animals on day 3 after the single intravenous injection,[5],5
same,Dead animals on day 4 after the single intravenous injection,[5],0
same,Dead animals on day 5 after the single intravenous injection,[5],2
same,Dead animals on day 6 after the single intravenous injection,[5],0
same,Dead animals on day 7 after the single intravenous injection,[5],0
same,Dead animals on day 8 after the single intravenous injection,[5],0
same,Dead animals on day 9 after the single intravenous injection,[5],0
same,Dead animals on days 10-14 after the single intravenous injection,[5],0 - - - 0
same,Percentage of dead animals,[5],75%
same,Dead animals on day 1 after the single intravenous injection,[6],20
same,Dead animals on day 2 after the single intravenous injection,[6],0
same,Dead animals on day 3 after the single intravenous injection,[6],0
same,Dead animals on day 4 after the single intravenous injection,[6],0
same,Dead animals on day 5 after the single intravenous injection,[6],0
same,Dead animals on day 6 after the single intravenous injection,[6],0
same,Dead animals on day 7 after the single intravenous injection,[6],0
same,Dead animals on day 8 after the single intravenous injection,[6],0
same,Dead animals on day 9 after the single intravenous injection,[6],0
same,Dead animals on days 10-14 after the single intravenous injection,[6],0 - - - 0
same,Percentage of dead animals,[6],100%
same,Dead animals on day 1 after the single intravenous injection,[7],0
same,Dead animals on day 2 after the single intravenous injection,[7],0
same,Dead animals on day 3 after the single intravenous injection,[7],0
same,Dead animals on day 4 after the single intravenous injection,[7],0
same,Dead animals on day 5 after the single intravenous injection,[7],0
same,Dead animals on day 6 after the single intravenous injection,[7],0
same,Dead animals on day 7 after the single intravenous injection,[7],0
same,Dead animals on day 8 after the single intravenous injection,[7],0
same,Dead animals on day 9 after the single intravenous injection,[7],0
same,Dead animals on days 10-14 after the single intravenous injection,[7],0 - - - 0
same,Percentage of dead animals,[7],0%
same,"Average animal weight, End","Female, 163.8 mg/kg, Beginning 19.6",24.2
same,Dead animals on day 1 after the single intravenous injection,[8],0
same,Dead animals on day 2 after the single intravenous injection,[8],0
same,Dead animals on day 3 after the single intravenous injection,[8],0
same,Dead animals on day 4 after the single intravenous injection,[8],0
same,Dead animals on day 5 after the single intravenous injection,[8],0
same,Dead animals on day 6 after the single intravenous injection,[8],0
same,Dead animals on day 7 after the single intravenous injection,[8],0
same,Dead animals on day 8 after the single intravenous injection,[8],0
same,Dead animals on day 9 after the single intravenous injection,[8],0
same,Dead animals on days 10-14 after the single intravenous injection,[8],0 - - - 0
same,Percentage of dead animals,[8],0%
same,"Average animal weight, End","Female, 204.8 mg/kg, Beginning 20.5",24.3
same,Dead animals on day 1 after the single intravenous injection,"Female, 256 mg/kg, 10 animals",0
same,Dead animals on day 2 after the single intravenous injection,"Female, 256 mg/kg, 10 animals",2
same,Dead animals on day 3 after the single intravenous injection,"Female, 256 mg/kg, 10 animals",0
same,Dead animals on day 4 after the single intravenous injection,"Female, 256 mg/kg, 10 animals",1
same,Dead animals on day 5 after the single intravenous injection,"Female, 256 mg/kg, 10 animals",0
same,Dead animals on day 6 after the single intravenous injection,"Female, 256 mg/kg, 10 animals",0
same,Dead animals on day 7 after the single intravenous injection,"Female, 256 mg/kg, 10 animals",0
same,Dead animals on day 8 after the single intravenous injection,"Female, 256 mg/kg, 10 animals",0
same,Dead animals on day 9 after the single intravenous injection,"Female, 256 mg/kg, 10 animals",0
same,Dead animals on days 10-14 after the single intravenous injection,"Female, 256 mg/kg, 10 animals",0 - - - 0
same,Percentage of dead animals,"Female, 256 mg/kg, 10 animals",30%
same,"Average animal weight, End","Female, 256 mg/kg, Beginning 20.1",24.6
same,Dead animals on day 1 after the single intravenous injection,"Female, 320 mg/kg, 10 animals",2
same,Dead animals on day 2 after the single intravenous injection,"Female, 320 mg/kg, 10 animals",2
same,Dead animals on day 3 after the single intravenous injection,"Female, 320 mg/kg, 10 animals",1
same,Dead animals on day 4 after the single intravenous injection,"Female, 320 mg/kg, 10 animals",0
same,Dead animals on day 5 after the single intravenous injection,"Female, 320 mg/kg, 10 animals",0
same,Dead animals on day 6 after the single intravenous injection,"Female, 320 mg/kg, 10 animals",0
same,Dead animals on day 7 after the single intravenous injection,"Female, 320 mg/kg, 10 animals",0
